The results in this text go back to PubChem BioAssay AID1996.

≈ marks a conversion by molar mass, not a printed value.

The conditions of the data set: buffer; pH 7.4; 200.0 µM.
As for `CC(C)CN1C(=O)c2ccc(NC(=O)Cc3ccccc3)cc2C1=O`, the solubility (kinetic) is less than 0.0004 mg/mL.

Regarding `C=CCN(CC=C)C(=O)C[n+]1ccc(C(N)=O)cc1.[Cl-]`, the solubility (kinetic) was more than 0.0444 mg/mL.

Molecule `CC(=O)c1cccc(NC(=S)N2CCc3ccccc32)c1` registered a kinetic solubility of 0.0031 mg/mL (≈ 10.5 µM).

Consider `Cc1ccsc1CNCCc1ccc(F)cc1`, for which the solubility (kinetic) turned out to be 0.0271 mg/mL (≈ 109 µM).

Regarding `Cc1cc(C)c2oc(C(=O)N3CCN(C)CC3)cc(=O)c2c1`, the solubility (kinetic) worked out at 0.0272 mg/mL (≈ 90.6 µM).

On to `O=C(COC(=O)c1cc(=O)[nH]c2ccccc12)NCc1ccccc1Cl`, for which the kinetic solubility worked out at 0.0041 mg/mL (≈ 11.1 µM).

In the case of `O=C(CSc1nnc(-c2ccccn2)o1)Nc1ccccc1`, the solubility (kinetic) was more than 0.0469 mg/mL.

Take `Cc1cc(C)nc(NC(=O)/C=C/c2ccc(Cl)cc2)n1`: the kinetic solubility worked out at 0.0421 mg/mL (≈ 146 µM).

`O=C(Cn1cnc([N+](=O)[O-])c1)Nc1ccccc1C(F)(F)F` came in with a kinetic solubility of 0.039 mg/mL (≈ 124 µM).

For the molecule `O=C(NCc1cccnc1)C1CCN(S(=O)(=O)c2cc([N+](=O)[O-])ccc2Cl)CC1`, the kinetic solubility was more than 0.0658 mg/mL.

On to `O=C(CS(=O)CC(=O)NC12CC3CC(CC(C3)C1)C2)Nc1ccc(F)cc1` (centres undefined), for which the kinetic solubility came to 0.0162 mg/mL (≈ 41.3 µM).

`Cc1cc(SCc2ccc(Cl)c(Cl)c2)nc(=O)[nH]1` returned a kinetic solubility of 0.0014 mg/mL (≈ 4.65 µM).

As for `Fc1ccc(Nc2ncnc3sccc23)cc1`, the kinetic solubility came out at 0.0328 mg/mL (≈ 134 µM).

As for `CCCNC(=O)COC(=O)/C(C#N)=C/c1cc(C)n(CCC)c1C`, the kinetic solubility came out at 0.0016 mg/mL (≈ 4.83 µM).

In turn, `Cc1cc(C)n2nc(SCC(=O)N3CCC(C)CC3)nc2n1` showed a solubility (kinetic) of more than 0.0479 mg/mL.

Molecule `Cc1ccc(S(=O)(=O)N2CCC(C(N)=O)CC2)cc1[N+](=O)[O-]` came in with a solubility (kinetic) of more than 0.0491 mg/mL.

For `COc1ccc(CCNC(=O)c2coc3ccccc3c2=O)cc1`, the kinetic solubility was found to be 0.0017 mg/mL (≈ 5.26 µM).

`CC1CC1C(=O)OCC(=O)NC(=O)c1ccccc1` (centres undefined) yielded a solubility (kinetic) of more than 0.0392 mg/mL.

The molecule `CCN(C(=O)CSc1ncccc1C(=O)O)C1CCCCC1` registered a solubility (kinetic) of more than 0.0484 mg/mL.

The molecule `Nc1ccnc(=O)[nH]1` gave a kinetic solubility of more than 0.0167 mg/mL.

`COc1cccc(NC(=O)Cn2cc(C=O)c3ccccc32)c1` had a solubility (kinetic) of 0.0005 mg/mL (≈ 1.62 µM).

Molecule `OCC1(CCCc2ccccc2)CCN(C2CCC2)CC1` gave a kinetic solubility of more than 0.0431 mg/mL.

Turning to `O=C(CN1CCCC1)NN=C(c1ccccc1)c1ccccc1`, the solubility (kinetic) was more than 0.0461 mg/mL.

The molecule `COc1ccc(C(=O)NCC(c2ccco2)N2CCOCC2)cc1OC` (centres undefined) displayed a kinetic solubility of more than 0.0541 mg/mL.

With `COS(=O)(=O)[O-].Cn1c(Cc2ccccc2)[n+](C)c2ccccc21`, the solubility (kinetic) is 0.0507 mg/mL.

In turn, `COc1ccc(CN2CCOCCOCCOCCOCC2)cc1` displayed a solubility (kinetic) of more than 0.0509 mg/mL.

Turning to `O=C(O)C1CCCCC1C(=O)NCc1ccccn1` (centres undefined), the solubility (kinetic) is more than 0.0393 mg/mL.

`Cc1ccc(NC(=O)CCN2CCC(C(N)=O)CC2)cc1` had a solubility (kinetic) of more than 0.0434 mg/mL.

The molecule `N#C/C(=C/c1ccc(F)cc1)S(=O)(=O)c1ccccc1` had a solubility (kinetic) of 0.0375 mg/mL (≈ 131 µM).

In the case of `CC1CN(c2nc(Nc3ccccc3F)nc(N)c2[N+](=O)[O-])CC(C)O1` (centres undefined), the kinetic solubility is more than 0.0544 mg/mL.

Molecule `Cc1nnc(SCC(=O)Nc2ccc(OC(F)F)c(Cl)c2)n(N)c1=O` yielded a solubility (kinetic) of more than 0.0588 mg/mL.

In turn, `CCc1ccc(OCCOC(=O)Nc2ccccc2)cc1` came in with a solubility (kinetic) of less than 0.0006 mg/mL.

For `COc1ccccc1NC(=O)/C=C1\NC(=O)CS1`, the kinetic solubility was more than 0.0396 mg/mL.

Regarding `CC(C)Oc1ccc(C2CC(=O)NC2=O)cc1` (centres undefined), the kinetic solubility is more than 0.035 mg/mL.

On to `CC(C)CCn1c(N2CCCC2)nc2c1c(=O)[nH]c(=O)n2C`, for which the kinetic solubility is more than 0.0458 mg/mL.

`COC(=O)c1cc(S(=O)(=O)NC2CCCCC2)cn1C`: the solubility (kinetic) came out at 0.042 mg/mL (≈ 140 µM).

For `CNS(=O)(=O)c1cc(N)ccc1C`, the kinetic solubility is 0.0262 mg/mL (≈ 131 µM).

Molecule `CC(C)OCCCNC(=O)Nc1cccc2ccccc12` displayed a kinetic solubility of more than 0.043 mg/mL.

In turn, `Nc1ncnc(NC2CCS(=O)(=O)C2)c1[N+](=O)[O-]` (centres undefined) returned a solubility (kinetic) of more than 0.041 mg/mL.

`C=C(C)c1cccc(C(C)(C)NC(=O)Nc2cccnc2)c1`: the solubility (kinetic) came to 0.0094 mg/mL (≈ 31.8 µM).

Regarding `CN(C1CCCCC1)S(=O)(=O)c1cn(C)c(=O)n(C)c1=O`, the kinetic solubility is more than 0.0473 mg/mL.

In turn, `O=C(CN1C(=O)NC2(CCc3ccccc32)C1=O)c1ccc(Br)cc1` (centres undefined) yielded a kinetic solubility of 0.0044 mg/mL (≈ 11 µM).

On to `CC(=O)NCCC(=O)N1CCCC(N(C)CCc2ccccc2)C1` (centres undefined), for which the solubility (kinetic) was more than 0.0497 mg/mL.

In turn, `Cc1nsc(N)c1C(=O)O` registered a kinetic solubility of more than 0.0237 mg/mL.

Regarding `COc1ccc(NC(=O)Cc2ccc(C)c(C)c2)cc1Cl`, the kinetic solubility came out at 0.0021 mg/mL (≈ 6.91 µM).

Regarding `CCOC(=O)C1CCCN(C(=O)c2cc3cc(F)ccc3[nH]2)C1` (centres undefined), the solubility (kinetic) was 0.0239 mg/mL (≈ 75.1 µM).

In turn, `CC(=O)c1ccc(NC(=S)NC(=O)/C=C/c2ccccc2)cc1` had a kinetic solubility of less than 0.0003 mg/mL.

As for `Cc1cc(C)cc(-c2nnc(SCC(=O)NC3CC3)o2)c1`, the solubility (kinetic) was more than 0.0455 mg/mL.

The molecule `CN1C(=O)NC(c2cccc([N+](=O)[O-])c2)C2=C1CC(C)(C)CC2=O` (centres undefined) yielded a solubility (kinetic) of 0.0346 mg/mL (≈ 105 µM).

`CC(C)(C)NC(=O)C(OC(=O)c1cccs1)c1ccc(F)cc1` (centres undefined) displayed a solubility (kinetic) of 0.0013 mg/mL (≈ 3.88 µM).

With `O=S(=O)(NC1CCCC1)c1cc(F)ccc1F`, the kinetic solubility is more than 0.0392 mg/mL.

`COc1ccc(-c2cc(C(=O)Nc3cc(C)on3)no2)cc1` displayed a kinetic solubility of less than 0.0002 mg/mL.

In turn, `CC1CC(C)CN(C(=O)c2ccc3c(c2)OCCO3)C1` (centres undefined) gave a solubility (kinetic) of more than 0.0413 mg/mL.

Molecule `COc1ccc(Cn2c(C(C)C)nc3sc4ccccc4c(=O)c3c2=O)cc1` registered a solubility (kinetic) of less than 0.0004 mg/mL.

Molecule `Cc1ccc(SCc2cn3cc(Cl)ccc3n2)cc1` showed a solubility (kinetic) of 0.0029 mg/mL (≈ 10 µM).

As for `CCOC(=O)/C(C#N)=C/Nc1cc(F)ccc1C`, the kinetic solubility worked out at 0.0032 mg/mL (≈ 12.9 µM).

The molecule `O=C(COC(=O)c1ccccc1)NCCC1=CCCCC1` had a kinetic solubility of 0.0241 mg/mL (≈ 83.9 µM).

`CC(CC(=O)OCC(=O)NC1CCS(=O)(=O)C1)c1ccccc1` (centres undefined): the kinetic solubility was more than 0.0509 mg/mL.

`O=[N+]([O-])c1cccc(S(=O)(=O)NCCCn2ccnc2)c1` came in with a solubility (kinetic) of more than 0.0465 mg/mL.

The molecule `O=c1[nH]n2cc(-n3cc([N+](=O)[O-])cn3)cnc2c1Br` came in with a solubility (kinetic) of more than 0.0488 mg/mL.

In the case of `O=C(c1cc2cc(Cl)ccc2[nH]1)N1CCC2(CC1)OCCO2`, the kinetic solubility was 0.016 mg/mL (≈ 49.9 µM).

As for `CCOc1ccccc1NC(=O)NC1CCCCCCC1`, the solubility (kinetic) was 0.0004 mg/mL (≈ 1.38 µM).

`S=C(Nc1ccccc1Oc1ccccc1)NC1CCCC1` gave a kinetic solubility of 0.005 mg/mL (≈ 16 µM).

`CCCC(=O)OCC(=O)Nc1ccc([N+](=O)[O-])cc1C#N` had a solubility (kinetic) of more than 0.0437 mg/mL.

Molecule `Cn1c(N)c(C(=O)COC(=O)CCC2CCCC2)c(=O)n(C)c1=O` yielded a solubility (kinetic) of more than 0.0506 mg/mL.

In the case of `NC1=NC(=O)/C(=C/c2ccc(Br)cc2)S1`, the solubility (kinetic) worked out at 0.0018 mg/mL (≈ 6.36 µM).

The molecule `COc1ccc2c(CC(=O)NNC(=O)c3ccc(O)cc3)coc2c1` registered a solubility (kinetic) of more than 0.0511 mg/mL.

With `CN(C(=O)COC(=O)c1ccc(Br)c(S(=O)(=O)N2CCOCC2)c1)C1CCCCC1`, the solubility (kinetic) is more than 0.0755 mg/mL.

The molecule `O=C(Nc1ccccc1)Nc1ccc2ncoc2c1` yielded a solubility (kinetic) of 0.0275 mg/mL (≈ 109 µM).

As to `C/C(=N\NC(=O)CCC(=O)NCc1ccccc1)c1ccco1`, the kinetic solubility was more than 0.047 mg/mL.

Consider `CCCCN1C(=O)CCC(C(=O)O)C1c1ccc([N+](=O)[O-])cc1` (centres undefined), for which the solubility (kinetic) was more than 0.0481 mg/mL.

In turn, `CN(C)CCNC(=O)c1scc2c1CCCC2.Cl` gave a kinetic solubility of more than 0.0433 mg/mL.

`Cc1ccccc1CSCC(=O)Nc1ccccc1F` gave a solubility (kinetic) of 0.0279 mg/mL (≈ 96.4 µM).

`O=C(CSc1nc2ccccc2[nH]1)NCc1ccc(F)cc1` registered a kinetic solubility of more than 0.0473 mg/mL.

Broadly, the solubility (kinetic) is solubility judged after dilution from a stock solution rather than from solid.
